Measurements reported in ChEMBL document CHEMBL6178017, “Intercepting the Downstream of the Estrogen Receptor Signaling Pathway: Discovery of a Potent and Efficient SRC-3 PROTAC Degrader for Overcoming Endocrine Resistance Breast Cancer” (J Med Chem, 2025).
The source made the active and inactive calls. The rule behind the calls is not given here.

Tests used:
[1] = target: Protein cereblon/Eukaryotic peptide chain release factor GTP-binding subunit ERF3A (Homo sapiens) (UniProt Q96SW2+P15170); experiment: PROTAC activity at CRBN/GSPT1-alpha in tamoxifen-resistant human LCC2 cells assessed as degradation of GSPT1 at 10 uM measured after 36 hrs by diaPASEF-based quantitative proteomics analysis; settings: Tamoxifen-resistant LCC2 cell
[2] = Induction of apoptosis in tamoxifen-resistant human LCC2 cells assessed as early apoptotic cells at 10 uM incubated for 48 hrs by AnnexinV-FITC/PI staining based flow cytometry (reference value: 5.92%); assay type: functional, Tamoxifen-resistant LCC2 cell
[3] = Induction of cell cycle arrest in tamoxifen-resistant human LCC2 cells assessed as accumulation of cells at G1 phase at 5 uM incubated for 48 hrs by propidium iodide staining based flow cytometry (reference value: 78.71%); assay type: functional
[4] = Cmax in Balb/c mouse at 2 mg/kg, iv by LC-MS/MS analysis; assay type: ADME, organism-based; settings: in vivo
[5] = target: T1, Protein cereblon/Nuclear receptor coactivator 3 (Homo sapiens, UniProt Q9Y6Q9+Q96SW2); experiment: PROTAC activity at CRBN/SRC-3 in human MCF-7 cells harboring Y537S mutant assessed as induction of SRC-3 degradation by measuring downregulation of SRC-3 protein level at 0.1 uM measured after 36 hrs by immunoblot analysis; assay type: cell-based; settings: MCF7
[6] = Induction of apoptosis in tamoxifen-resistant human LCC2 cells assessed as necrotic cells at 1 uM incubated for 48 hrs by AnnexinV-FITC/PI staining based flow cytometry (reference value: 1.16%); assay type: functional, Tamoxifen-resistant LCC2 cell
[7] = target: T1, Protein cereblon/Nuclear receptor coactivator 3; experiment: PROTAC activity at CRBN/SRC-3 in human MCF7 cells assessed as induction of SRC-3 degradation at 1 uM preincubated with autophagy inhibitor, chloroquine for 2 hrs followed by incubation with compound and measured after 36 hrs by immunoblot analysis; assay type: cell-based
[8] = target: T1, Protein cereblon/Nuclear receptor coactivator 3; experiment: PROTAC activity at CRBN/SRC-3 in human MCF-7 cells harboring Y537S mutant assessed as induction of SRC-3 degradation measured after 36 hrs by immunoblot analysis; assay type: cell-based; settings: MCF7, dose 0.01-10 µM
[9] = Tmax in Balb/c mouse at 20 mg/kg, po by LC-MS/MS analysis; assay type: ADME, organism-based; settings: in vivo
[10] = tested on: Mus musculus; experiment: In vivo PROTAC activity at CRBN/SRC-3 in Balb/c mouse xenografted with tamoxifen-resistant human LCC2 cells assessed as induction of SRC-3 degradation in tumor tissues at 5 uM/Kg, ip administered once every 2 days for 23 days and measured on day 25 by western blot analysis; assay type: functional, organism-based; settings: time 25.0 day
[11] = tested on: Tamoxifen-resistant LCC2 cell; experiment: Upregulation of SRC3 mRNA expression in tamoxifen-resistant human LCC2 cells at 0.01 to 10 uM incubated for 36 hrs by qRT-PCR analysis; assay type: functional, cell-based; settings: dose 0.01-10 µM
[12] = Hepatic clearance in human liver microsomes in presence of NADPH by LC-MS/MS analysis; assay type: ADME, Microsome
[13] = target: Protein cereblon/Nuclear receptor coactivator 1 (Homo sapiens) (UniProt Q15788+Q96SW2); experiment: PROTAC activity at CRBN/SRC-1 in human MCF7 cells assessed as induction of SRC-1 degradation at 0.01 to 10 uM measured after 36 hrs by immunoblot analysis; assay type: cell-based; settings: dose 0.01-10 µM
[14] = target: T1, Protein cereblon/Nuclear receptor coactivator 3; experiment: PROTAC activity at CRBN/SRC-3 in human MCF7 cells assessed as maximal induction of SRC-3 degradation at 1 uM incubated for 36 hrs by immunoblot analysis; assay type: cell-based
[15] = tested on: MCF7; experiment: Induction of apoptosis in human MCF7 cells assessed as increase in late apoptotic cells at 1 to 20 uM incubated for 48 hrs by AnnexinV-FITC/PI staining based flow cytometry; assay type: functional, cell-based; settings: dose 1-20 µM
[16] = tested on: MCF7; experiment: Induction of apoptosis in human MCF7 cells assessed as maximal increase in early apoptotic cells at 10 uM incubated for 48 hrs by AnnexinV-FITC/PI staining based flow cytometry; assay type: functional
[17] = Induction of apoptosis in tamoxifen-resistant human LCC2 cells assessed as necrotic cells at 10 uM incubated for 48 hrs by AnnexinV-FITC/PI staining based flow cytometry (reference value: 1.16%); assay type: functional, Tamoxifen-resistant LCC2 cell
[18] = Induction of cell cycle arrest in tamoxifen-resistant human LCC2 cells assessed as accumulation of cells at G1 phase at 20 uM incubated for 48 hrs by propidium iodide staining based flow cytometry (reference value: 78.71%); assay type: functional
[19] = Cmax in Balb/c mouse at 4 mg/kg, ip by LC-MS/MS analysis; assay type: ADME, organism-based; settings: in vivo
[20] = Oral bioavailability in Balb/c mouse at 20 mg/kg by LC-MS/MS analysis; assay type: ADME, organism-based; settings: in vivo
[21] = Induction of apoptosis in tamoxifen-resistant human LCC2 cells assessed as late apoptotic cells at 10 uM incubated for 48 hrs by AnnexinV-FITC/PI staining based flow cytometry (reference value: 4.83%); assay type: functional, Tamoxifen-resistant LCC2 cell
[22] = Tmax in Balb/c mouse at 4 mg/kg, ip by LC-MS/MS analysis; assay type: ADME, organism-based; settings: in vivo
[23] = Induction of apoptosis in tamoxifen-resistant human LCC2 cells assessed as viable cells at 10 uM incubated for 48 hrs by AnnexinV-FITC/PI staining based flow cytometry (reference value: 88.09%); assay type: functional; settings: Tamoxifen-resistant LCC2 cell, read-out: Activity
[24] = Induction of cell cycle arrest in tamoxifen-resistant human LCC2 cells assessed as accumulation of cells at G2/M phase at 20 uM incubated for 48 hrs by propidium iodide staining based flow cytometry (reference value: 11.42%); assay type: functional
[25] = AUC(0 to infinity) in Balb/c mouse at 2 mg/kg, iv by LC-MS/MS analysis; assay type: ADME, organism-based; settings: in vivo
[26] = AUC (0 to t) in Balb/c mouse at 20 mg/kg, po by LC-MS/MS analysis; assay type: ADME, organism-based; settings: in vivo
[27] = target: T1, Protein cereblon/Nuclear receptor coactivator 3; experiment: PROTAC activity at CRBN/SRC-3 in tamoxifen-resistant human LCC2 cells assessed as induction of SRC-3 degradation at 0.1 to 10 uM incubated for 24 hrs by immunoblot analysis; assay type: cell-based; settings: Tamoxifen-resistant LCC2 cell, dose 0.1-10 µM
[28] = target: T1, Protein cereblon/Nuclear receptor coactivator 3; experiment: PROTAC activity at CRBN/SRC-3 in human MCF7 cells assessed as induction of SRC-3 degradation at 1 uM incubated for 24 hrs by immunoblot analysis relative to control; assay type: cell-based
[29] = Induction of apoptosis in tamoxifen-resistant human LCC2 cells assessed as early apoptotic cells at 5 uM incubated for 48 hrs by AnnexinV-FITC/PI staining based flow cytometry (reference value: 5.92%); assay type: functional, Tamoxifen-resistant LCC2 cell
[30] = tested on: MCF7; experiment: Induction of cell cycle arrest in human MCF7 cells assessed as accumulation of cells at G1 phase at 5 to 20 uM incubated for 48 hrs by propidium iodide staining based flow cytometry; assay type: functional; settings: dose 5-20 µM
[31] = tested on: MCF7; experiment: Induction of apoptosis in human MCF7 cells assessed as increase in early apoptotic cells at 1 to 20 uM incubated for 48 hrs by AnnexinV-FITC/PI staining based flow cytometry; assay type: functional, cell-based; settings: dose 1-20 µM
[32] = target: T1, Protein cereblon/Nuclear receptor coactivator 3; experiment: PROTAC activity at CRBN/SRC-3 in tamoxifen-resistant human LCC2 cells assessed as degradation of CDK4 by measuring downregulation of CDK4 protein level at 10 uM measured after 36 hrs by diaPASEF-based quantitative proteomics analysis; settings: Tamoxifen-resistant LCC2 cell

T1 sequence (Q96SW2 whole entry partner): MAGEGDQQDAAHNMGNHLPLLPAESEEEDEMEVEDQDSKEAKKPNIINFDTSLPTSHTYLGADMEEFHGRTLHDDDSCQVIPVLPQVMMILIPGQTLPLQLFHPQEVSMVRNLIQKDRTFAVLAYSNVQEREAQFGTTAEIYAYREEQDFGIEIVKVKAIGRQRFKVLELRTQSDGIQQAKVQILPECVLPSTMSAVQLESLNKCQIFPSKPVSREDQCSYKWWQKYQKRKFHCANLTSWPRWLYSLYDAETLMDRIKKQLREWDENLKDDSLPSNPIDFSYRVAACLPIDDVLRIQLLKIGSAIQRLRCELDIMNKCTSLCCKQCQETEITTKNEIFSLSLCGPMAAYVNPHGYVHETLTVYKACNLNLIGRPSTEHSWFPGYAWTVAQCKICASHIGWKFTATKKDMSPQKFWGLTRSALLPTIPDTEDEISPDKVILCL
T1 sequence (Q9Y6Q9 2-1424 limits assumed): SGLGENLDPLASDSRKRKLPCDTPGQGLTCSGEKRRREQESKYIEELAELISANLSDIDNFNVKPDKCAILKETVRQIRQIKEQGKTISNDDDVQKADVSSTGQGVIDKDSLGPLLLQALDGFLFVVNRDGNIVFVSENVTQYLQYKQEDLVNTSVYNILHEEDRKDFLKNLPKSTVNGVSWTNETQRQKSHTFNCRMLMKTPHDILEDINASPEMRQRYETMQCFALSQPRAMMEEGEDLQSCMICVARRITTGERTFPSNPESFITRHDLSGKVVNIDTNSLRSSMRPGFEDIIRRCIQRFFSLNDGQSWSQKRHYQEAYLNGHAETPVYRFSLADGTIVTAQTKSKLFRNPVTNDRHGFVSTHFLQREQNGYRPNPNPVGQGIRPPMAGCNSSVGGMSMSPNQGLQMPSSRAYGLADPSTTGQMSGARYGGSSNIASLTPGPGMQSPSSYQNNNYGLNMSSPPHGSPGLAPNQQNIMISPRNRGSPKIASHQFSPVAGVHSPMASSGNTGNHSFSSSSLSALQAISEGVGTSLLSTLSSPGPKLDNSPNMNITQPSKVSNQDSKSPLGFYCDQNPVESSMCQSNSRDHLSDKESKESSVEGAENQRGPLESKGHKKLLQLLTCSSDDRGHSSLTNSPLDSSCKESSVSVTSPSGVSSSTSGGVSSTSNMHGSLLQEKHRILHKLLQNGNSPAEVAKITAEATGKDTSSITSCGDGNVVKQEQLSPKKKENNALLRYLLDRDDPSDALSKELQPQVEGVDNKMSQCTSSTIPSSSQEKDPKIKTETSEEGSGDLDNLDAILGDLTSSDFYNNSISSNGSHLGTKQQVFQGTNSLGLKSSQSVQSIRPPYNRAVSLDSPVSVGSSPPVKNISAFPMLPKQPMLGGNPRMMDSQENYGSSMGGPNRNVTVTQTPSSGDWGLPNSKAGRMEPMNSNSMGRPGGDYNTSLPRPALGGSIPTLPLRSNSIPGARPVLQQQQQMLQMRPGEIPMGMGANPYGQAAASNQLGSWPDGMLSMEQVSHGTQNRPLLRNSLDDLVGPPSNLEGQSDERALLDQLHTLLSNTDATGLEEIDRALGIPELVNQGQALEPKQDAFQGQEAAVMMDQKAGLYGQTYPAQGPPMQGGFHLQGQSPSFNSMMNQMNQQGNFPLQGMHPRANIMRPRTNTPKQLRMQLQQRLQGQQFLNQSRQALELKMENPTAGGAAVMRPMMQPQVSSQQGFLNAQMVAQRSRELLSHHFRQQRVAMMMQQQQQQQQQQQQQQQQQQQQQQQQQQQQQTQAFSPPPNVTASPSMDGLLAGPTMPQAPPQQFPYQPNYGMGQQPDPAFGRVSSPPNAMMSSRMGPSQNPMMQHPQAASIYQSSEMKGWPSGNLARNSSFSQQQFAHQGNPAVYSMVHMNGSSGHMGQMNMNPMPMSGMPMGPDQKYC
Sequence of Protein cereblon/Nuclear receptor coactivator 1 (Homo sapiens) (Q15788 whole entry, looked up): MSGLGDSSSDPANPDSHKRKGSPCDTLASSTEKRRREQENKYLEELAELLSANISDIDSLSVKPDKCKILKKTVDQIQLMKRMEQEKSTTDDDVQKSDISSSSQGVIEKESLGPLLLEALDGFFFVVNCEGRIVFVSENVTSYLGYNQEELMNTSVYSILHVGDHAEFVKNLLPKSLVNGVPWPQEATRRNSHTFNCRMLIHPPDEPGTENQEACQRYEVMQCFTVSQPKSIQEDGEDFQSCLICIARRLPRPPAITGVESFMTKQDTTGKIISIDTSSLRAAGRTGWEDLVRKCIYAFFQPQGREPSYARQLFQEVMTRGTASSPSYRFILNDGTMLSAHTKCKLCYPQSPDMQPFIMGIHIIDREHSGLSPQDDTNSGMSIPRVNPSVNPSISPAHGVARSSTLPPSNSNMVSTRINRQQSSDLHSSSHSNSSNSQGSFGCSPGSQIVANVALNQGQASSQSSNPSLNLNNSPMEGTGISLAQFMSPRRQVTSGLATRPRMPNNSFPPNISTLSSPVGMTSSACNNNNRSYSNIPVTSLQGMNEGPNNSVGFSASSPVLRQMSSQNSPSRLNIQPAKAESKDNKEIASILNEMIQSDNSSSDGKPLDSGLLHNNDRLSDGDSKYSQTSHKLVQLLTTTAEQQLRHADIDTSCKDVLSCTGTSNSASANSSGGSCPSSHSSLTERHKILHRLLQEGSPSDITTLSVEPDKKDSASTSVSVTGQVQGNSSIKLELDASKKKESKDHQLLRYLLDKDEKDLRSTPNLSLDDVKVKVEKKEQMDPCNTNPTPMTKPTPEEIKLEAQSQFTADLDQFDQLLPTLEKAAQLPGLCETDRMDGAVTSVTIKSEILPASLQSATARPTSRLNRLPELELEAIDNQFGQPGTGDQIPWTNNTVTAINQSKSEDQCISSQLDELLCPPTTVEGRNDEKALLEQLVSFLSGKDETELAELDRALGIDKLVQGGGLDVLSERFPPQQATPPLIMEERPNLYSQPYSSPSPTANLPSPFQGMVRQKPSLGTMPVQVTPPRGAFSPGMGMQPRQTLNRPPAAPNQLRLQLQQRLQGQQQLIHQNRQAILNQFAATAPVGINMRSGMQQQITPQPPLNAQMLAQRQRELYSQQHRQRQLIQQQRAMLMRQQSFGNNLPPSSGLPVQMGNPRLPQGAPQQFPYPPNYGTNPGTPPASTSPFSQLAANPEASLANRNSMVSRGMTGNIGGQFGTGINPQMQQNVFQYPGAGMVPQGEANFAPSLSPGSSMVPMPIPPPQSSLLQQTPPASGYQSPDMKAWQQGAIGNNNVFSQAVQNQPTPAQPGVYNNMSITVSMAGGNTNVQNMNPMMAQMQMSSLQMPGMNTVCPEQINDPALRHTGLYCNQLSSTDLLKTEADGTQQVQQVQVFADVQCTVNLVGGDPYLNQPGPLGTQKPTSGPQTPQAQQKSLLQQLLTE
Sequence of Protein cereblon/Nuclear receptor coactivator 1 (Homo sapiens) (Q96SW2 whole entry, looked up): as the sequence (Q96SW2 whole entry partner) above
Sequence of Protein cereblon/Eukaryotic peptide chain release factor GTP-binding subunit ERF3A (Homo sapiens) (P15170 whole entry, looked up): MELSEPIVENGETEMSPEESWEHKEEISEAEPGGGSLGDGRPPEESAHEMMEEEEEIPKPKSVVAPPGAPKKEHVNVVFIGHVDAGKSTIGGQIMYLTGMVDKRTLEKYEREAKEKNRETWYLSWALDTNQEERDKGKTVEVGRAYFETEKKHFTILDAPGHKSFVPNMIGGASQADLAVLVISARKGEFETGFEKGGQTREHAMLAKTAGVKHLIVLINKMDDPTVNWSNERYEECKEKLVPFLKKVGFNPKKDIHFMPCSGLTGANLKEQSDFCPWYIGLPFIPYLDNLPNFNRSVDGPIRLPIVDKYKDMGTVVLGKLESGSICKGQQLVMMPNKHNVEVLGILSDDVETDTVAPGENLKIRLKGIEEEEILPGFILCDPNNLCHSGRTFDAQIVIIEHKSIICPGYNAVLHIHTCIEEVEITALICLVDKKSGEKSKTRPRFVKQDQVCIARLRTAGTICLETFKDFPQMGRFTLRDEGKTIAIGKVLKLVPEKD
Sequence of Protein cereblon/Eukaryotic peptide chain release factor GTP-binding subunit ERF3A (Homo sapiens) (Q96SW2 whole entry, looked up): as the sequence (Q96SW2 whole entry partner) above

In the case of `C/C(=N\Nc1nc2ccccc2n1C1CN(C2CCN(c3cccc4c3C(=O)N(C3CCC(=O)NC3=O)C4=O)CC2)C1)c1ccccn1` (configuration not stated), the Activity [1] is reported as “inactive”, the Activity [2] is reported as 24.23% and the Activity [3] is reported as 81.41%. For the same molecule, the Cmax [4] was 148 ng/mL, the Activity [5] was “Active” and the Activity [6] was 9.63%. For the same molecule, the Activity [7] was “Active”, the Activity [8] was “Dose-dependent-effect” and the Tmax [9] was 19.8 min. For the same molecule, the Activity [10] was “Active”, the Activity [11] was “Active” and the CLhep predicted [12] was 18.7 mL/min/kg. The Activity [13] was “Active; Moderate Degradation Against Src-1 Compared To Src-3 Observed”, the Activity [14] was “Active” and the Activity [15] was “Active”. It also gave an Activity [16] of roughly 35%, an Activity [17] of 6.62% and an Activity [18] of 85.05%. The Cmax [19] was 31.2 ng/mL, the bioavailability [20] was 1% and the Activity [21] was 20.48%. It also gave a Tmax [22] of 19.8 min, a viability at 10 µM [23] of 48.7% and an Activity [24] of 3.71%. The AUC(0-inf) [25] was 367 ng·h/mL, the AUC(0-t) [26] was 47.1 ng·h/mL and the Activity [27] was “Active”. The Activity [28] was 71%, the Activity [29] was 10.14% and the Activity [30] was “Active”. The Activity [31] was “Active” and the Activity [32] was “Active”.
